From ChEMBL document CHEMBL1671627, “Increasing trends in antimicrobial resistance among clinically important anaerobes and Bacteroides fragilis isolates causing nosocomial infections: emerging resistance to carbapenems” (2008)
≈ marks a conversion by molar mass, not a printed value.

Legend:
[1] = test system: Bacteroides thetaiotaomicron; test: Antibacterial activity against beta-lactamase producing Bacteroides thetaiotaomicron assessed as susceptible isolates by CLSI agar dilution method; format: functional
[2] = test system: Prevotella melaninogenica; test: Antibacterial activity against Prevotella melaninogenica assessed as resistant isolates by CLSI agar dilution method; format: functional
Fusobacterium varium [3] = test: Antibacterial activity against Fusobacterium varium assessed as susceptible isolates by CLSI agar dilution method; format: functional
Prevotella bivia [4] = test: Antibacterial activity against Prevotella bivia by CLSI agar dilution method; format: functional
Phocaeicola vulgatus [5] = test: Antibacterial activity against beta-lactamase producing Bacteroides vulgatus assessed as resistant isolates by CLSI agar dilution method; format: functional
Finegoldia magna [6] = test: Antibacterial activity against beta-lactamase producing Finegoldia magna assessed as resistant isolates by CLSI agar dilution method; format: functional
Fusobacterium nucleatum [7] = test: Antibacterial activity against Fusobacterium nucleatum assessed as resistant isolates by CLSI agar dilution method; format: functional
Fusobacterium mortiferum [8] = test: Antibacterial activity against Fusobacterium mortiferum assessed as resistant isolates by CLSI agar dilution method; format: functional
Phocaeicola vulgatus [9] = test: Antibacterial activity against beta-lactamase producing Bacteroides vulgatus by CLSI agar dilution method; format: functional
Bacteroides caccae [10] = test: Antibacterial activity against beta-lactamase producing Bacteroides caccae by CLSI agar dilution method; format: functional
[11] = test system: Clostridium paraputrificum; test: Antibacterial activity against beta-lactamase producing Clostridium paraputrificum by CLSI agar dilution method; format: functional
Clostridium tertium [12] = test: Antibacterial activity against beta-lactamase producing Clostridium tertium by CLSI agar dilution method; format: functional
Fusobacterium mortiferum [13] = test: Antibacterial activity against Fusobacterium mortiferum assessed as susceptible isolates by CLSI agar dilution method; format: functional
[14] = test system: Peptostreptococcus anaerobius; test: Antibacterial activity against beta-lactamase producing Peptostreptococcus anaerobius assessed as resistant isolates by CLSI agar dilution method; format: functional
Clostridium septicum [15] = test: Antibacterial activity against beta-lactamase producing Clostridium septicum assessed as susceptible isolates by CLSI agar dilution method; format: functional
Fusobacterium nucleatum [16] = test: Antibacterial activity against Fusobacterium nucleatum assessed as susceptible isolates by CLSI agar dilution method; format: functional
Bacteroides caccae [17] = test: Antibacterial activity against beta-lactamase producing Bacteroides caccae assessed as susceptible isolates by CLSI agar dilution method; format: functional
[18] = test system: Peptoniphilus asaccharolyticus; test: Antibacterial activity against beta-lactamase producing Peptoniphilus asaccharolyticus by CLSI agar dilution method; format: functional
[19] = test system: Prevotella melaninogenica; test: Antibacterial activity against Prevotella melaninogenica by CLSI agar dilution method; format: functional
[20] = test system: Fusobacterium necrophorum; test: Antibacterial activity against Fusobacterium necrophorum assessed as resistant isolates by CLSI agar dilution method; format: functional
[21] = test system: Bacteroides thetaiotaomicron; test: Antibacterial activity against beta-lactamase producing Bacteroides thetaiotaomicron by CLSI agar dilution method; format: functional
[22] = test system: Fusobacterium necrophorum; test: Antibacterial activity against Fusobacterium necrophorum by CLSI agar dilution method; format: functional
Fusobacterium mortiferum [23] = test: Antibacterial activity against Fusobacterium mortiferum by CLSI agar dilution method; format: functional
Parvimonas micra [24] = test: Antibacterial activity against beta-lactamase producing Micromonas micros assessed as susceptible isolates by CLSI agar dilution method; format: functional
Parvimonas micra [25] = test: Antibacterial activity against beta-lactamase producing Micromonas micros assessed as resistant isolates by CLSI agar dilution method; format: functional
Phocaeicola vulgatus [26] = test: Antibacterial activity against beta-lactamase producing Bacteroides vulgatus assessed as susceptible isolates by CLSI agar dilution method; format: functional
Bacteroides fragilis [27] = test: Antibacterial activity against Bacteroides fragilis by CLSI agar dilution method; format: functional
Clostridium perfringens = test: microbe, parasite or virus in culture; format: functional
Bacteroides caccae [28] = test: Antibacterial activity against beta-lactamase producing Bacteroides caccae assessed as resistant isolates by CLSI agar dilution method; format: functional
Prevotella bivia [29] = test: Antibacterial activity against Prevotella bivia assessed as resistant isolates by CLSI agar dilution method; format: functional
[30] = test system: Peptostreptococcus anaerobius; test: Antibacterial activity against beta-lactamase producing Peptostreptococcus anaerobius by CLSI agar dilution method; format: functional
Finegoldia magna [31] = test: Antibacterial activity against beta-lactamase producing Finegoldia magna assessed as susceptible isolates by CLSI agar dilution method; format: functional
[32] = test system: Clostridium paraputrificum; test: Antibacterial activity against beta-lactamase producing Clostridium paraputrificum assessed as susceptible isolates by CLSI agar dilution method; format: functional
[33] = test system: Clostridium paraputrificum; test: Antibacterial activity against beta-lactamase producing Clostridium paraputrificum assessed as resistant isolates by CLSI agar dilution method; format: functional
[34] = test system: Fusobacterium necrophorum; test: Antibacterial activity against Fusobacterium necrophorum assessed as susceptible isolates by CLSI agar dilution method; format: functional
Bacteroides fragilis [35] = test: Antibacterial activity against Bacteroides fragilis assessed as susceptible isolates by CLSI agar dilution method; format: functional
Prevotella buccae [36] = test: Antibacterial activity against Prevotella buccae by CLSI agar dilution method; format: functional; details: Segatella buccae
Clostridium septicum [37] = test: Antibacterial activity against beta-lactamase producing Clostridium septicum assessed as resistant isolates by CLSI agar dilution method; format: functional
Prevotella intermedia [38] = test: Antibacterial activity against Prevotella intermedia assessed as susceptible isolates by CLSI agar dilution method; format: functional
Fusobacterium varium [39] = test: Antibacterial activity against Fusobacterium varium by CLSI agar dilution method; format: functional
Bacteroides fragilis [40] = test: Antibacterial activity against Bacteroides fragilis assessed as resistant isolates by CLSI agar dilution method; format: functional
Bacteroides uniformis [41] = test: Antibacterial activity against beta-lactamase producing Bacteroides uniformis by CLSI agar dilution method; format: functional
Clostridium tertium [42] = test: Antibacterial activity against beta-lactamase producing Clostridium tertium assessed as susceptible isolates by CLSI agar dilution method; format: functional
[43] = test system: Peptoniphilus asaccharolyticus; test: Antibacterial activity against beta-lactamase producing Peptoniphilus asaccharolyticus assessed as susceptible isolates by CLSI agar dilution method; format: functional
Prevotella intermedia [44] = test: Antibacterial activity against Prevotella intermedia assessed as resistant isolates by CLSI agar dilution method; format: functional
Prevotella buccae [45] = test: Antibacterial activity against Prevotella buccae assessed as susceptible isolates by CLSI agar dilution method; format: functional, Segatella buccae
Prevotella buccae [46] = test: Antibacterial activity against Prevotella buccae assessed as resistant isolates by CLSI agar dilution method; format: functional, Segatella buccae
Fusobacterium nucleatum [47] = test: Antibacterial activity against Fusobacterium nucleatum by CLSI agar dilution method; format: functional
Prevotella bivia [48] = test: Antibacterial activity against Prevotella bivia assessed as susceptible isolates by CLSI agar dilution method; format: functional
Veillonella parvula = test: Antibacterial activity against Veillonella parvula by CLSI agar dilution method; format: functional
[49] = test system: Peptoniphilus asaccharolyticus; test: Antibacterial activity against beta-lactamase producing Peptoniphilus asaccharolyticus assessed as resistant isolates by CLSI agar dilution method; format: functional
Prevotella intermedia [50] = test: Antibacterial activity against Prevotella intermedia by CLSI agar dilution method; format: functional
Finegoldia magna [51] = test: Antibacterial activity against beta-lactamase producing Finegoldia magna by CLSI agar dilution method; format: functional
Bacteroides uniformis [52] = test: Antibacterial activity against beta-lactamase producing Bacteroides uniformis assessed as resistant isolates by CLSI agar dilution method; format: functional
Clostridium tertium [53] = test: Antibacterial activity against beta-lactamase producing Clostridium tertium assessed as resistant isolates by CLSI agar dilution method; format: functional
[54] = test system: Peptostreptococcus anaerobius; test: Antibacterial activity against beta-lactamase producing Peptostreptococcus anaerobius assessed as susceptible isolates by CLSI agar dilution method; format: functional
Parvimonas micra [55] = test: Antibacterial activity against beta-lactamase producing Micromonas micros by CLSI agar dilution method; format: functional
Fusobacterium varium [56] = test: Antibacterial activity against Fusobacterium varium assessed as resistant isolates by CLSI agar dilution method; format: functional
[57] = test system: Bacteroides thetaiotaomicron; test: Antibacterial activity against beta-lactamase producing Bacteroides thetaiotaomicron assessed as resistant isolates by CLSI agar dilution method; format: functional
Clostridium septicum [58] = test: Antibacterial activity against beta-lactamase producing Clostridium septicum by CLSI agar dilution method; format: functional
Bacteroides uniformis [59] = test: Antibacterial activity against beta-lactamase producing Bacteroides uniformis assessed as susceptible isolates by CLSI agar dilution method; format: functional
[60] = test system: Prevotella melaninogenica; test: Antibacterial activity against Prevotella melaninogenica assessed as susceptible isolates by CLSI agar dilution method; format: functional

Cc1ncc([N+](=O)[O-])n1CCO [METRONIDAZOLE]
Activity [1]: 100% | Activity [2]: 0% | Activity (Fusobacterium varium [3]): 100% | MIC50 (Prevotella bivia [4]): 1 µg/mL (≈ 5.84 µM) | MIC90 (Prevotella bivia [4]): 8 µg/mL (≈ 46.7 µM) | Activity (Phocaeicola vulgatus [5]): 0% | Activity (Finegoldia magna [6]): 9% | Activity (Fusobacterium nucleatum [7]): 0% | Activity (Fusobacterium mortiferum [8]): 0% | MIC50 (Phocaeicola vulgatus [9]): 1 µg/mL (≈ 5.84 µM) | MIC90 (Phocaeicola vulgatus [9]): 4 µg/mL (≈ 23.4 µM) | MIC50 (Bacteroides caccae [10]): 1 µg/mL (≈ 5.84 µM) | MIC90 (Bacteroides caccae [10]): 4 µg/mL (≈ 23.4 µM) | MIC50 [11]: 8 µg/mL (≈ 46.7 µM) | MIC90 [11]: 16 µg/mL (≈ 93.5 µM) | MIC50 (Clostridium tertium [12]): 8 µg/mL (≈ 46.7 µM) | MIC90 (Clostridium tertium [12]): 16 µg/mL (≈ 93.5 µM) | Activity (Fusobacterium mortiferum [13]): 100% | Activity [14]: 9% | Activity (Clostridium septicum [15]): 64% | Activity (Fusobacterium nucleatum [16]): 100% | Activity (Bacteroides caccae [17]): 100% | MIC50 [18]: 0.5 µg/mL (≈ 2.92 µM) | MIC90 [18]: 16 µg/mL (≈ 93.5 µM) | MIC50 [19]: 1 µg/mL (≈ 5.84 µM) | MIC90 [19]: 8 µg/mL (≈ 46.7 µM) | Activity [20]: 0% | MIC50 [21]: 1 µg/mL (≈ 5.84 µM) | MIC90 [21]: 2 µg/mL (≈ 11.7 µM) | MIC50 [22]: 0.5 µg/mL (≈ 2.92 µM) | MIC90 [22]: 1 µg/mL (≈ 5.84 µM) | MIC50 (Fusobacterium mortiferum [23]): 0.5 µg/mL (≈ 2.92 µM) | MIC90 (Fusobacterium mortiferum [23]): 1 µg/mL (≈ 5.84 µM) | Activity (Parvimonas micra [24]): 88% | Activity (Parvimonas micra [25]): 9% | Activity (Phocaeicola vulgatus [26]): 100% | MIC50 (Bacteroides fragilis [27]): 2 µg/mL (≈ 11.7 µM) | MIC90 (Bacteroides fragilis [27]): 8 µg/mL (≈ 46.7 µM) | MIC50 (Clostridium perfringens): 8 µg/mL (≈ 46.7 µM) | MIC90 (Clostridium perfringens): 16 µg/mL (≈ 93.5 µM) | Activity (Bacteroides caccae [28]): 0% | Activity (Prevotella bivia [29]): 0% | MIC50 [30]: 0.5 µg/mL (≈ 2.92 µM) | MIC90 [30]: 16 µg/mL (≈ 93.5 µM) | Activity (Finegoldia magna [31]): 88% | Activity [32]: 64% | Activity [33]: 11% | Activity [34]: 100% | Activity (Bacteroides fragilis [35]): 98% | MIC50 (Prevotella buccae [36]): 1 µg/mL (≈ 5.84 µM) | MIC90 (Prevotella buccae [36]): 8 µg/mL (≈ 46.7 µM) | Activity (Clostridium septicum [37]): 11% | Activity (Prevotella intermedia [38]): 94% | MIC50 (Fusobacterium varium [39]): 0.5 µg/mL (≈ 2.92 µM) | MIC90 (Fusobacterium varium [39]): 1 µg/mL (≈ 5.84 µM) | Activity (Bacteroides fragilis [40]): 0% | MIC50 (Bacteroides uniformis [41]): 1 µg/mL (≈ 5.84 µM) | MIC90 (Bacteroides uniformis [41]): 4 µg/mL (≈ 23.4 µM) | Activity (Clostridium tertium [42]): 64% | Activity [43]: 88% | Activity (Prevotella intermedia [44]): 0% | Activity (Prevotella buccae [45]): 94% | Activity (Prevotella buccae [46]): 0% | MIC50 (Fusobacterium nucleatum [47]): 0.5 µg/mL (≈ 2.92 µM) | MIC90 (Fusobacterium nucleatum [47]): 1 µg/mL (≈ 5.84 µM) | Activity (Prevotella bivia [48]): 94% | MIC (Veillonella parvula): 1 µg/mL (≈ 5.84 µM) | Activity [49]: 9% | MIC50 (Prevotella intermedia [50]): 1 µg/mL (≈ 5.84 µM) | MIC90 (Prevotella intermedia [50]): 8 µg/mL (≈ 46.7 µM) | MIC50 (Finegoldia magna [51]): 0.5 µg/mL (≈ 2.92 µM) | MIC90 (Finegoldia magna [51]): 16 µg/mL (≈ 93.5 µM) | Activity (Bacteroides uniformis [52]): 0% | Activity (Clostridium tertium [53]): 11% | Activity [54]: 88% | MIC50 (Parvimonas micra [55]): 0.5 µg/mL (≈ 2.92 µM) | MIC90 (Parvimonas micra [55]): 16 µg/mL (≈ 93.5 µM) | Activity (Fusobacterium varium [56]): 0% | Activity [57]: 0% | MIC50 (Clostridium septicum [58]): 8 µg/mL (≈ 46.7 µM) | MIC90 (Clostridium septicum [58]): 16 µg/mL (≈ 93.5 µM) | Activity (Bacteroides uniformis [59]): 100% | Activity [60]: 94%
